Reference: PubChem BioAssay (NCI)
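48-hour exposure; five concentrations; linearly interpolated endpoints. Abbreviation: GI50, concentration required for 50% inhibition of growth. Definition used: TGI = concentration required for complete inhibition of growth.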

Tests used:
Assay in all cases: growth of human tumour cells (NCI), 48 h
[1] = test system: OVCAR-8 ovarian
[2] = test system: HT29 colon
[3] = test system: NCI-H23 lung
[4] = test system: OVCAR-3 ovarian
[5] = test system: PC-3 prostate
[6] = test system: SK-OV-3 ovarian
[7] = test system: K-562 leukemia
[8] = test system: RXF 393 renal
[9] = test system: NCI/ADR-RES ovarian
[10] = test system: MOLT-4 leukemia
[11] = test system: HCT-15 colon
[12] = test system: SF-268 CNS
[13] = test system: CAKI-1 renal
[14] = test system: DU-145 prostate
[15] = test system: CCRF-CEM leukemia
[16] = test system: HCC-2998 colon
[17] = test system: A498 renal
[18] = test system: NCI-H460 lung
[19] = test system: HL-60(TB) leukemia
[20] = test system: BT-549 breast
[21] = test system: UO-31 renal
[22] = test system: SF-295 CNS
[23] = test system: NCI-H226 lung
[24] = test system: RPMI-8226 leukemia
[25] = test system: HOP-62 NSCLC
[26] = test system: OVCAR-4 ovarian
[27] = test system: IGROV1 ovarian
[28] = test system: SR leukemia
[29] = test system: COLO 205 colon
[30] = test system: SK-MEL-5 melanoma
[31] = test system: SN12C renal
[32] = test system: SF-539 CNS
[33] = test system: U251 CNS
[34] = test system: SNB-19 CNS
[35] = test system: MCF7 breast
[36] = test system: A549 NSCLC
[37] = test system: 786-0 renal
[38] = test system: TK-10 renal
[39] = test system: OVCAR-5 ovarian
[40] = test system: UACC-257 melanoma
[41] = test system: KM12 colon
[42] = test system: NCI-H522 lung
[43] = test system: SK-MEL-2 melanoma
[44] = test system: MALME-3M melanoma
[45] = test system: MDA-MB-231 breast
[46] = test system: HS 578T breast
[47] = test system: UACC-62 melanoma
[48] = test system: SNB-75 CNS
[49] = test system: ACHN renal
[50] = test system: SK-MEL-28 melanoma
[51] = test system: LOX IMVI melanoma
[52] = test system: M14 melanoma
[53] = test system: HCT-116 colon
[54] = test system: SW-620 colon
[55] = test system: HOP-92 NSCLC
[56] = test system: T-47D breast
[57] = test system: MDA-MB-435
[58] = test system: EKVX NSCLC

In the case of CCOc1cc(Cl)c(C(C)NC(=O)c2cccc(OC)c2)cc1OCC (stereo unspecified), the GI50 [1] is reported as 25.7 µM, the TGI [1] is reported as > 100 µM and the GI50 [2] is reported as 4.23 µM. The TGI [2] was 44.6 µM, the GI50 [3] was 21.7 µM and the TGI [3] was > 100 µM. It also gave a GI50 [4] of 4.19 µM, a TGI [4] of 29.4 µM and a GI50 [5] of 15.1 µM. For the same compound, the TGI [5] was > 100 µM, the GI50 [6] was 15.6 µM and the TGI [6] was > 100 µM. For the same compound, the GI50 [7] was 3.9 µM, the TGI [7] was > 100 µM and the GI50 [8] was 9.21 µM. The TGI [8] was 63 µM, the GI50 [9] was 4.18 µM and the TGI [9] was > 100 µM. For the same compound, the GI50 [10] was 5.91 µM, the TGI [10] was > 100 µM and the GI50 [11] was 4.06 µM. For the same compound, the TGI [11] was > 100 µM, the GI50 [12] was 23.6 µM and the TGI [12] was > 100 µM. For the same compound, the GI50 [13] was 11.1 µM, the TGI [13] was > 100 µM and the GI50 [14] was 24.8 µM. For the same compound, the TGI [14] was > 100 µM, the GI50 [15] was 11.7 µM and the TGI [15] was > 100 µM. For the same compound, the GI50 [16] was 28.8 µM, the TGI [16] was > 100 µM and the GI50 [17] was 0.561 µM. For the same compound, the TGI [17] was 21.9 µM, the GI50 [18] was 4.79 µM and the TGI [18] was > 54.8 µM. The GI50 [19] was 3.96 µM, the TGI [19] was > 100 µM and the GI50 [20] was 13.4 µM. For the same compound, the TGI [20] was > 100 µM, the GI50 [21] was 13.9 µM and the TGI [21] was > 100 µM. The GI50 [22] was 5.99 µM, the TGI [22] was > 84.5 µM and the GI50 [23] was 37.4 µM. The TGI [23] was > 100 µM, the GI50 [24] was 16.1 µM and the TGI [24] was > 100 µM. The GI50 [25] was 6.94 µM, the TGI [25] was > 100 µM and the GI50 [26] was 17.9 µM. For the same compound, the TGI [26] was 99.4 µM, the GI50 [27] was 17.5 µM and the TGI [27] was > 100 µM. The GI50 [28] was 3.92 µM, the TGI [28] was > 100 µM and the GI50 [29] was 7.17 µM. It also gave a TGI [29] of 47.3 µM, a GI50 [30] of 7.39 µM and a TGI [30] of 24.6 µM. The GI50 [31] was 28.9 µM, the TGI [31] was > 100 µM and the GI50 [32] was 5.01 µM. The TGI [32] was 34.3 µM, the GI50 [33] was 8.18 µM and the TGI [33] was > 100 µM. For the same compound, the GI50 [34] was 12.6 µM, the TGI [34] was > 100 µM and the GI50 [35] was 4.6 µM. For the same compound, the TGI [35] was > 100 µM, the GI50 [36] was 8.59 µM and the TGI [36] was > 100 µM. For the same compound, the GI50 [37] was 20.5 µM, the TGI [37] was > 100 µM and the GI50 [38] was 28.6 µM. For the same compound, the TGI [38] was > 100 µM, the GI50 [39] was > 52.7 µM and the TGI [39] was > 100 µM. The GI50 [40] was 37 µM, the TGI [40] was > 100 µM and the GI50 [41] was 7.19 µM. For the same compound, the TGI [41] was > 100 µM, the GI50 [42] was 5.04 µM and the TGI [42] was 39.7 µM. For the same compound, the GI50 [43] was 4.67 µM, the TGI [43] was > 100 µM and the GI50 [44] was 9.42 µM. For the same compound, the TGI [44] was > 100 µM, the GI50 [45] was 11.1 µM and the TGI [45] was > 100 µM. The GI50 [46] was 11.8 µM, the TGI [46] was > 100 µM and the GI50 [47] was 8.81 µM. The TGI [47] was > 100 µM, the GI50 [48] was 4.79 µM and the TGI [48] was 49.9 µM. For the same compound, the GI50 [49] was 20.1 µM, the TGI [49] was > 100 µM and the GI50 [50] was 16.5 µM. The TGI [50] was > 100 µM, the GI50 [51] was 14.2 µM and the TGI [51] was > 100 µM. For the same compound, the GI50 [52] was 5.39 µM, the TGI [52] was > 100 µM and the GI50 [53] was 4.48 µM. For the same compound, the TGI [53] was > 100 µM, the GI50 [54] was 4 µM and the TGI [54] was > 100 µM. For the same compound, the GI50 [55] was 12.1 µM, the TGI [55] was > 85.6 µM and the GI50 [56] was 7.06 µM. For the same compound, the TGI [56] was > 100 µM.

With COc1cc2c(Nc3ccc(-c4ccc(N)cc4)cc3)ncnc2c(OC)c1OC the GI50 [1] was 5.46 µM, the TGI [1] was 56.9 µM and the GI50 [2] was 8.02 µM. For the same compound, the TGI [2] was > 81.7 µM, the GI50 [3] was 19.5 µM and the TGI [3] was > 100 µM. The GI50 [4] was 6.43 µM, the TGI [4] was > 59.3 µM and the GI50 [5] was 5.46 µM. The TGI [5] was > 89.1 µM, the GI50 [6] was 46.5 µM and the TGI [6] was > 100 µM. The GI50 [7] was 0.521 µM, the TGI [7] was > 100 µM and the GI50 [8] was 24.9 µM. The TGI [8] was > 95.9 µM, the GI50 [9] was 4.54 µM and the TGI [9] was > 100 µM. The GI50 [10] was 4.05 µM, the TGI [10] was > 100 µM and the GI50 [11] was 0.607 µM. The TGI [11] was > 85.7 µM, the GI50 [12] was 19.1 µM and the TGI [12] was > 100 µM. The GI50 [13] was 0.655 µM, the TGI [13] was > 56.5 µM and the GI50 [14] was 18.4 µM. For the same compound, the TGI [14] was > 100 µM, the GI50 [15] was 6.09 µM and the TGI [15] was > 100 µM. The GI50 [17] was 15.1 µM, the TGI [17] was 56 µM and the GI50 [18] was 2.89 µM. For the same compound, the TGI [18] was > 66.4 µM, the GI50 [19] was 2.54 µM and the TGI [19] was 20.4 µM. It also gave a GI50 [20] of 7.99 µM, a TGI [20] of 55 µM and a GI50 [21] of 2.07 µM. The TGI [21] was > 76.5 µM, the GI50 [22] was 1.5 µM and the TGI [22] was 7.52 µM. For the same compound, the GI50 [23] was 21 µM, the TGI [23] was > 100 µM and the GI50 [24] was 3.78 µM. The TGI [24] was 41.4 µM, the GI50 [25] was 24.8 µM and the TGI [25] was > 100 µM. For the same compound, the GI50 [26] was 6.01 µM, the TGI [26] was > 100 µM and the GI50 [27] was 12.6 µM. For the same compound, the TGI [27] was > 100 µM, the GI50 [28] was 5.5 µM and the TGI [28] was 84.9 µM. It also gave a GI50 [29] of 2.6 µM, a TGI [29] of 7.94 µM and a GI50 [30] of 1.94 µM. The TGI [30] was 5.3 µM, the GI50 [31] was 11.2 µM and the TGI [31] was > 100 µM. For the same compound, the GI50 [32] was 2.42 µM, the TGI [32] was > 28.7 µM and the GI50 [33] was 7.93 µM. The TGI [33] was > 100 µM, the GI50 [34] was 7.76 µM and the TGI [34] was > 100 µM. For the same compound, the GI50 [35] was 3.54 µM, the TGI [35] was > 100 µM and the GI50 [36] was 2.68 µM. The TGI [36] was > 100 µM, the GI50 [37] was 3.72 µM and the TGI [37] was > 100 µM. For the same compound, the GI50 [38] was 21 µM, the TGI [38] was > 100 µM and the GI50 [39] was 6.29 µM. The TGI [39] was > 100 µM, the GI50 [40] was 4.58 µM and the TGI [40] was > 100 µM. The GI50 [41] was 0.615 µM, the TGI [41] was 41.6 µM and the GI50 [42] was 3.15 µM. The TGI [42] was > 80.9 µM, the GI50 [43] was 4.96 µM and the TGI [43] was > 78.1 µM. For the same compound, the GI50 [44] was 22.4 µM, the TGI [44] was > 92.2 µM and the GI50 [45] was 2.9 µM. For the same compound, the TGI [45] was > 100 µM, the GI50 [46] was 11.5 µM and the TGI [46] was > 68 µM. For the same compound, the GI50 [47] was 0.522 µM, the TGI [47] was > 35.1 µM and the GI50 [48] was 16.6 µM. For the same compound, the TGI [48] was 64.9 µM, the GI50 [57] was 0.752 µM and the TGI [57] was 47.1 µM. The GI50 [49] was 1.76 µM, the TGI [49] was > 100 µM and the GI50 [50] was 11.9 µM. The TGI [50] was > 100 µM, the GI50 [51] was 0.438 µM and the TGI [51] was > 100 µM. For the same compound, the GI50 [52] was 0.542 µM, the TGI [52] was > 67.1 µM and the GI50 [53] was 3.79 µM. The TGI [53] was 55.3 µM, the GI50 [54] was 0.733 µM and the TGI [54] was > 100 µM. For the same compound, the GI50 [55] was 18.3 µM, the TGI [55] was > 100 µM and the GI50 [58] was 5.4 µM. For the same compound, the TGI [58] was > 100 µM, the GI50 [56] was 5.13 µM and the TGI [56] was 86.7 µM.
